Residues, ends and D or L forms follow the SMILES beside them.
Legend:
[1] = test system: c-Met and Erk phosphorylation in MDA-MB231 cells; test: Western blotting of HGF-induced c-Met and Erk phosphorylation, MDA-MB231; assay type: cell-based, human; conditions: peptide 20 µM 10 min, HGF 25 ng/mL 10 min
Description: (§1) To examine c-Met and Erk phosphorylation, MDA-MB231 cells were serum-starved for 24 h, pre-treated with CD44v6-binding peptides (20 µM) for 10 min, and incubated with 25 ng/mL HGF for 10 min. After the incubation, the cell lysates were subjected to Western blotting analyses using an anti-phospho-Met rabbit monoclonal antibody (clone no. D26; Cell Signaling Technology), anti-Met mouse monoclonal antibody (clone no. 25H2, 1:1000 dilution; Cell Signaling Technology), anti-phospho-Erk1/2 rabbit monoclonal antibody (clone no. 197G2; Cell Signaling Technology), and anti-ERK1 rabbit polyclonal antibody (1:1000 dilution; Santa Cruz Biotechnology). The labeled bands on immunoblots were detected using enhanced chemiluminescence reagents (ThermoFisher Scientific).

[2] = target: T1, recombinant human CD44v6-Fc protein (Homo sapiens, UniProt P16070); test: ELISA of peptide binding to recombinant proteins; conditions: 10 µM biotin-labeled peptide, 4 °C, 1 h
T1 sequence (P16070 386-428 limits assumed): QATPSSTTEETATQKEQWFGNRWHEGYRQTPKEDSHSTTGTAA
Description: Supplementary Information
Supplementary Materials and Methods […]
peroxidase-conjugated neutravidin (1:10,000 dilution; ThermoFisher Scientific, Waltham, MA) for 30 min at room temperature. Enzymatic activity was detected using a 3,3ʹ,5,5ʹ-tetramethylbenzidine substrate (ThermoFisher Scientific), and the reaction was stopped using 2 M […]
sulfuric acid. […]
Enzyme-linked immunosorbent assay (ELISA) of peptide binding to recombinant proteins ELISA plates were coated overnight with 100 μL of recombinant human CD44v6-Fc and CD44-Fc proteins (R&D Systems, Minneapolis, MN) at a concentration of 1 μg/mL in Tris-buffered saline with 0.05% Tween-20. BSA was used as a control. After coating, plates were incubated with 10 µM biotin-labeled CD44v6-binding peptides at 4 °C for 1 h. After washing, the cells were incubated with horseradish peroxidase-conjugated neutravidin (1:10,000 dilution; ThermoFisher Scientific) for 30 min at room temperature. Detection of enzymatic activity and measurement of absorbance was performed as described above. Relative binding was calculated based on the absorbance, in which the absorbance of BSA was set to 1.

[3] = test system: c-Met and Erk phosphorylation in 4T1 cells; test: Western blotting of HGF-induced c-Met and Erk phosphorylation, 4T1; assay type: cell-based, mouse; conditions: peptide pre-treatment 10 min, HGF 25 ng/mL 10 min
Description: as §1
Supplementary Figure S3. NLN and NEW inhibit HGF-induced c-Met phosphorylation and cell migration and invasion in 4T1 breast tumor cells. (A) Western blotting analysis of c-Met and Erk phosphorylation in 4T1 cells pretreated or not with 5 μg/mL NLN and NEW for 10 min and treated with 25 ng/mL HGF for 10 min. (B) The quantification of c-Met and Erk […]
(1 picture or pasted object on this page, not shown here)

[4] = test system: CD44v6-high cells (MDA-MB231, 4T1, Panc-1) versus CD44v6-low MCF7 cells; test: Immunofluorescence microscopy and flow cytometry of FITC-peptide cell binding; assay type: cell-based; conditions: FITC-labeled peptide 25 µM, 4 °C, 1 h
Description: Cells were seeded in each well of an 8-well chamber slide at a density of 1 × 10^5 cells per well, incubated overnight, and then treated with 1% BSA at room temperature for 1 h. Subsequently, the cells were incubated with FITC-conjugated peptides (25 µM) at 4 °C for 1 h, blocked with BSA, fixed, and incubated with an anti-human CD44v6 mouse monoclonal antibody (clone no. VFF-7, 1:100 dilution; Santa Cruz Biotechnology, Dallas, TX) or a rabbit anti-CD44v6 polyclonal antibody (1:100 dilution; Merck). The cells were then incubated with an Alexa Fluor 594-labeled goat anti-mouse IgG or goat anti-rabbit IgG secondary antibodies (Merck). After incubation, the cells were counterstained with 4ʹ,6-diamidino-2-phenylindole (DAPI, Sigma-Aldrich, St. Louis, MI), mounted with ProLong antifade reagent (Thermo Fischer Scientific), and observed under a confocal microscope (Zeiss, Jena, Germany).
Cells (1 × 10^5 cells) were harvested and suspended in culture medium containing 1% BSA for 1 h, followed by an incubation with FITC-labeled peptides (25 µM) at 4 °C for 1 h. After washing, the cells were analyzed using a FACSCalibur flow cytometer (BD, Franklin Lakes, NJ). […]

[5] = test system: MDA-MB231 subcutaneous tumors; test: In vivo whole-body and ex vivo fluorescence imaging of tumor homing; set-up: species or system BALB/c nude mouse; conditions: Flamma 675 NIR dye-labeled peptide 1 mg/kg i.v.; for ex vivo accumulation in tumors versus organs: 6 h post-injection, n = 3/group; for in vivo fluorescence signals at tumor areas: imaging 1-6 h
Description: Mice for animal experiments were purchased from Orient Bio Inc. (Seongnam, Korea) and maintained in conformance with the Guidelines of the Institutional Animal Care and Use Committee of Kyungpook National University (permission no. 2014-1-121). A total of 1 × 10^6 MDA-MB231 cells were subcutaneously injected into the right flank of each 6-week-old female BALB/c nude mouse. When the tumor reached a volume of approximately 100 mm^3, the mouse was injected intravenously with Flamma 675 NIR fluorescence dye-labeled peptides (1 mg/kg body weight). Whole-body fluorescence imaging was performed under inhalational anesthesia using an IVIS imaging system (Perkin Elmer). After in vivo imaging, each mouse was euthanized, the tumor and control organs (liver, kidney, spleen, heart, and lung) were isolated, and ex vivo images were obtained using the IVIS imaging system.

[6] = target: T2, CD44v6 on MDA-MB231 cells (Homo sapiens, UniProt P16070); test: Flow cytometric competition assays with anti-CD44v6 antibody; assay type: cell-based; conditions: for peptide binding to cells after pre-treatment with anti-CD44v6 antibody: MDA-MB231, antibody 5 µg/mL 1 h, FITC-labeled peptide 10 µM; for staining of CD44v6 with anti-CD44v6 antibody after pre-treatment with peptide: MDA-MB231, peptide 50 µM 1 h
T2 sequence (P16070 386-428 limits assumed): T1 sequence (P16070 386-428 limits assumed)
Description: Cells (1 × 10^5 cells) were harvested and suspended in culture medium containing 1% BSA for 1 h, followed by an incubation with FITC-labeled peptides (25 µM) at 4 °C for 1 h. After washing, the cells were analyzed using a FACSCalibur flow cytometer (BD, Franklin Lakes, NJ). For competition assays, cells were incubated with 5 µg/mL of an anti-human CD44v6 mouse monoclonal antibody (clone no. VFF-18, 1:100 dilution; Abcam, Cambridge, MA) and anti-human CD44 monoclonal antibody (clone no. 156-3C11, 1:100 dilution; ThermoFisher Scientific) for 1 h to compete with peptide binding, followed by an incubation with FITC-labeled peptides (10 µM) before analysis on a flow cytometer (BD). In another set of assays, cells were incubated with peptides (50 µM) for 1 h to compete with antibody binding, followed by an incubation with 5 µg/mL of the anti-human CD44v6 mouse monoclonal antibody for 1 h, The cells were then incubated with an Alexa Fluor 488-labeled goat anti-mouse IgG secondary antibody (Merck) before analysis on a flow cytometer (BD).

## CC(C)C[C@H](NC(=O)[C@H](CCC(N)=O)NC(=O)[C@H](Cc1c[nH]c2ccccc12)NC(=O)[C@H](CCC(=O)O)NC(=O)[C@H](CC(N)=O)NC(=O)[C@@H](N)CS)C(=O)N[C@@H](CCCCN)C(=O)N[C@@H](CO)C(=O)N[C@@H](CS)C(=O)O [NEW] (H-CNEWQLKSC-OH; N-terminus and C-terminus assumed)
[1]
  HGF-induced phosphorylation of c-Met and Erk, MDA-MB231: inhibited
[2]
  binding to recombinant CD44v6-Fc protein coated on plates compared with CD44-Fc and albumin: preferentially bound
[3]
  HGF-induced phosphorylation of c-Met and Erk, 4T1: inhibited
[4]
  cellular binding, CD44v6-high versus CD44v6-low cells: bound selectively to CD44v6-high cells
[5]
  ex vivo accumulation in tumors versus organs: higher levels of NLN and NEW accumulation in tumors than in control organs
  in vivo fluorescence signals at tumor areas: higher than those associated with the control peptide until 4 h
[6]
  peptide binding to cells after pre-treatment with anti-CD44v6 antibody: significantly inhibited
  staining of CD44v6 with anti-CD44v6 antibody after pre-treatment with peptide: inhibited

## CC[C@H](C)[C@H](NC(=O)[C@@H](NC(=O)[C@H](CC(N)=O)NC(=O)[C@H](CC(C)C)NC(=O)[C@H](CC(N)=O)NC(=O)[C@@H](N)CS)[C@@H](C)O)C(=O)N[C@@H](CC(=O)O)C(=O)N[C@H](C(=O)N[C@@H](CS)C(=O)O)[C@@H](C)O [NLN] (H-CNLNTIDTC-OH; N-terminus and C-terminus assumed)
[1]
  HGF-induced phosphorylation of c-Met and Erk, MDA-MB231: inhibited
[2]
  binding to recombinant CD44v6-Fc protein coated on plates compared with CD44-Fc and albumin: preferentially bound
[3]
  HGF-induced phosphorylation of c-Met and Erk, 4T1: inhibited
[4]
  cellular binding, CD44v6-high versus CD44v6-low cells: bound selectively to CD44v6-high cells
[5]
  ex vivo accumulation in tumors versus organs: higher levels of NLN and NEW accumulation in tumors than in control organs
  in vivo fluorescence signals at tumor areas: higher than those associated with the control peptide until 4 h
[6]
  peptide binding to cells after pre-treatment with anti-CD44v6 antibody: significantly inhibited
  staining of CD44v6 with anti-CD44v6 antibody after pre-treatment with peptide: inhibited

From article PMC7738880, “Identification of novel CD44v6-binding peptides that block CD44v6 and deliver a pro-apoptotic peptide to tumors to inhibit tumor growth and metastasis in mice” (Theranostics, 2021)
